Data taken from patent US9138433B2, “Indole alkaloid compounds as melanogenesis promoters and uses thereof” (NEW YORK UNIVERSITY, priority 2010, dated 2015).

Columns and labels:
melan-a cells = assay: Melanin assay in cultured murine melanocytes (melan-a); format: cell-based; details: melanin content, 72 hours incubation
Procedure: The Spectrum Collection library consisting of 2000 drug compounds or natural products was screened to identify novel pigmentation inhibitors or stimulators in cultured murine melanocytes (melan-a). Compounds were dissolved in dimethylsulfoxide (DMSO) to a final concentration of 10 mM. Screening was performed with cultured melanocytes in 24-well plates followed by melanin assay (see below). A minimum change of 50% in melanin formation was established as significant for a pigmentation inhibitor or stimulator. DMSO was used as a negative control and the widely used depigmenting agent, hydroquinone, was used as a positive control on every plate. Primary screening was performed at a final concentration of 1 μM and potential candidates from the primary screening were reconfirmed in duplicate at final concentrations of 1 and 5 μM.
Melan-a cells were plated at 5×10^4 cells per well in 1 ml of culture media in 24-well plates the day before adding the library compounds. All compounds were added at the indicated final concentrations. Cells were harvested after 72 hours of incubation, and melanin assay was performed.
For further test and mechanism of action studies, the compounds were purchased from either Sigma or MicroSource. These compounds were dissolved in dimethylsulfoxide (DMSO) to a final concentration of 10 mM, and were tested for their effect on melanin synthesis at the indicated final concentrations.
For the primary and secondary screening, cells were harvested and dissolved in 200 μl of 2N NaOH in 20% DMSO at 70° C. A 180-μl aliquot of the resulting solution was measured for absorbance at 490 nm.
Cells are harvested in extraction buffer (1% Triton X-100, 50 mM Tris, 2 mM EDTA, 150 mM NaCl, pH 7.5) containing a complete protease inhibitor cocktail (Roche). The lysates were centrifuged at 14,000 rpm for 10 minutes at 4° C. BCA protein assay kit (Pierce) was used to measure the protein concentrations of the supernatants, and bovine serum albumin was used as a standard. The remaining pellets were incubated with 100 μl ethanol-ether (1:1) for 10 minutes at room temperature. After removing the ethanol-ether, the pellets were dissolved in 200 μl of 2N NaOH in 20% DMSO at 70° C. A 180-μl aliquot of the resulting solution was measured for absorbance at 490 nm. The melanin contents were normalized to the total amount of protein.

[1] = system: Asian skin equivalent (MEL-A); assay: MelanoDerm pigmentation assay, Asian skin equivalent (MEL-A); format: cell-based, human
Procedure: MelanoDerm™, made by MatTek Corp., is a viable reconstituted three-dimensional human skin equivalent containing normal melanocytes and keratinocytes that are derived from African-American (MEL-B), Asian (MEL-A) or Caucasian (MEL-C) donors. Both MEL-A and MEL-B tissues were used in the current study, and they were maintained in the NMM-113 medium as recommended by the manufacturer.
Pubescine (from Sigma) was dissolved in 30% ethanol: 70% propylene glycol to a final concentration of 1.0 mM (equal to 356.6 μg/ml), and this was maintained constant and used on all samples tested. A 25 μl of its aliquot was applied topically to the MelanoDerm™ tissue (MEL-B) on Days 0, 1, 3, 6, 8 and 10. The MelanoDerm™ tissues were fed every other day with 5 ml fresh NMM-113. Prior to each application, the tissues were washed with 1 ml PBS to remove any residual test compound. Tissues were fixed on Days 10 and 13 for microscopic analysis and histological evaluation. In addition, duplicate tissues were frozen on Days 10 and 13 for the melanin assay.
Similar experiments were performed on Asian skin equivalent (MEL-A) except: the treatments were applied on Days 0, 1, 3, 6, 8, 10 and 13. Tissues were taken out on Days 13 and 16 for the various assays. […]
Procedure 1: the effects of pubescine on melanin synthesis in MEL-A or B were evaluated by light microscopy (views from the top surface of the tissue). […]

[2] = system: Tyr gene family proteins and gp100 in melan-a cells; assay: Cellular levels of Tyr gene family proteins and gp100 in melan-a cells (immunoblot); format: cell-based, murine; details: various concentrations, 72 hrs, FIG. 3
Procedure: Melan-a cells were incubated with various concentrations of pubescine for 72 hrs. Cell lysates were prepared and separated by 7.5% sodium dodecyl sulfate-polyacrylamide gel and transferred to Immobilon-P membranes. Tyrosinase gene family proteins were detected with antibodies against each protein. The results are set forth in the gel of FIG. 3.

[3] = system: Tyr, Tryp-1 or Lamp-1 in melan-a cells; assay: Sub-cellular localization of Tyr, Tyrp-1, Lamp-1 in melan-a cells (immunofluorescence); format: cell-based, murine; details: 10 μM, 72 hrs at 37° C., FIGS. 4A and 4B
Procedure: Cells were cultured on cover slips, incubated with or without 10 μM pubescine for 72 hrs at 37° C. The cells were fixed with −20° C. methanol for 5 min and stained by immunofluorescence with antibodies for Tyr, Tyrp-1 and/or Lamp-1. The slides were analyzed with a confocal microscope (LSM 510, Zeiss).

SMILES | % after treatment @ 1 μM (melan-a cells) | % after treatment @ 5 μM (melan-a cells) | Fontana-Masson staining, melanin content ([1]; Asian skin equivalent (MEL-A), FIG. 6) | Melanin content increase of Asian skin equivalent (MEL-A) ([1]; pubescine 1.0 mM topical, 25 μl, FIG. 7) | Cellular levels of tyrosinase family proteins and gp100 [2] | Sub-cellular localization of Tyr, Tryp-1 or Lamp-1 [3]
COC(=O)[C@H]1[C@H]2C[C@H]3c4[nH]c5ccccc5c4CCN3C[C@@H]2CC[C@@H]1O [ID 1, Corynanthine] | 111% | 211% |  |  |  | 
CC[C@H]1[C@@H]2C[C@H]3[C@@H]4N(C)c5ccccc5[C@]45C[C@@H]([C@H]2[C@H]5O)N3[C@@H]1O [ID 2, Ajmaline, reference compound] | 117% | 206% |  |  |  | 
COC(=O)C1=CO[C@@H](C)[C@H]2CN3CCc4c([nH]c5ccccc45)[C@@H]3C[C@H]12 [ID 3, Ajmalicine, reference compound] | 106% | 133% |  |  |  | 
COC(=O)[C@H]1[C@H]2C[C@@H]3c4[nH]c5cc(OC)ccc5c4CCN3C[C@H]2C[C@@H](OC(=O)c2cc(OC)c(OC)c(OC)c2)[C@@H]1OC [ID 4, Reserpine, reference compound] | 117% | 133% |  |  |  | 
COc1ccc2c3c([nH]c2c1)[C@@H]1C[C@H]2[C@@H](C[C@@H](O)[C@H](OC)[C@H]2C(=O)O)CN1CC3 [ID 5, Reserpic Acid] | 111% | 217% |  |  |  | 
COC(=O)C1=CO[C@@H](C)[C@H]2CN3CCc4c([nH]c5cc(OC)ccc45)[C@@H]3C[C@H]12 [ID 6, Pubescine] | 172% | 267% | increase in the melanin content | ~40% | increases cellular levels of tyrosinase family proteins and gp100 in a dose-dependent manner | does not alter the sub-cellular localization
